Assay results taken from PMC11396514, “Synthesis and Biological Evaluation of Novel Piperidine-3-Carboxamide Derivatives as Anti-Osteoporosis Agents Targeting Cathepsin K” (Molecules, 2024).
“Also recorded” adds a separate entry of the source.

Key:
[1] = system: RANKL-induced RAW264.7 cells; assay: In vitro anti-bone resorption assay: CTX-I released into culture medium (ELISA), cells on bovine femur slices; format: cell-based
Description: (§1) Type I collagen, the predominant structural protein in bone, constitutes approximately 90% of the bone matrix protein [22]. During bone renewal, type I collagen is degraded, releasing short peptide fragments such as the C-terminal peptide of type I collagen (CTX-I) into the bloodstream. The concentration of CTX-I in the patient’s blood serves as a crucial biomarker for evaluating the degree of osteoporosis. In vitro, bone resorption can be assessed by measuring the concentration of CTX-I using a model in which osteoclasts are cultured on bone slices. In this experiment, the in vitro anti-bone resorption activities of the test compounds were evaluated in RANKL-induced RAW264.7 cells. This evaluation was based on the concentration of CTX-I released into the cell culture medium due to bone degradation, as well as the area of bone resorption pits formed on bone slices.
(§2) RAW264.7 cells, obtained from the cell bank of the Chinese Academy of Medical Sciences, were seeded into 96-well plates at a density of 1 × 10^5 cells per well with bovine femur slices. To induce cell differentiation, 50 ng mL^−1 of RANKL was added to the RAW264.7 cells. The cells were cultured for 5 days at 37 °C under 5% CO2 with the test compounds at a concentration of 1 µM. The culture supernatant was collected to measure the CTX-I concentration using ELISA. The bone slices were fixed with 2.5% glutaraldehyde for 7 min, then washed 3 times with 0.25 mol/L ammonium hydroxide, dehydrated using a series of ethanol solutions (40%, 75%, 80%, 95%, and anhydrous ethanol), and dried naturally. After staining with 1% toluidine blue solution at room temperature for 3–4 min, the bone slices were rinsed with distilled water and analyzed using an optical microscope. Bone resorption areas were calculated using image analysis software (iBright CL1500, Redmond, WA, USA).

[2] = system: Cat K levels in RAW264.7 cells; assay: Western blotting assay of Cat K expression; format: cell-based; settings: H-9 at 0, 1 and 5 µM for five days, RANKL-treated RAW264.7 cells
Protocol: To further verify the anti-bone resorption mechanism of the target compounds, a western blotting assay was carried out to assess the effect of compound H-9 on the expression of Cat K. […] RAW264.7 cells were treated with compound H-9 at concentrations of 0, 1, and 5 µM for five days, followed by cell lysis. Proteins were extracted and analyzed for Cat K levels. […] These western blotting results, combined with enzyme inhibitory activities and molecular docking analyses, confirm that the anti-bone resorption activity of compound H-9 is mediated through the inhibition of Cat K activity.
RAW264.7 cells were seeded into 12-well plates at a density of 1 × 10^5 cells per well, and 50 ng mL^−1 of RANKL was added to induce cell differentiation. The cells were cultured at 37 °C under 5% CO2 and treated with compound H-9 (0, 1, and 5 µM) for 5 days. The cells were then harvested, lysed, and centrifuged at 12,000× g for 10 min. The supernatants were collected and mixed with loading buffer, then heated to 100 °C. Total protein concentrations were determined using a Bio-Rad protein assay ([…], Hercules, CA, USA). The samples were subjected to SDS-PAGE and transferred to a PVDF membrane. The membrane was blocked with 5% non-fat milk, and then, incubated overnight at 4 °C with primary antibody against Cat K and GAPDH. […]

[3] = system: RANKL-induced RAW264.7 cells; assay: In vitro anti-bone resorption assay: area of bone resorption pits on bone slices (toluidine blue); format: cell-based; settings: compound 1 µM, 5 days, compared with MIV-711 / model group
Description: as §1, §2

Recombinant human Cat K = target: T1, Recombinant human Cat K (Homo sapiens, UniProt P43235); assay: In vitro enzymatic assay of Cat K inhibition (Z-Phe-Arg-AMC fluorescence); format: biochemical; settings: pH 6.0, substrate Z-Phe-Arg-AMC, read-out: Cat K IC50 (µM) ± SD
T1 sequence (P43235 115-329): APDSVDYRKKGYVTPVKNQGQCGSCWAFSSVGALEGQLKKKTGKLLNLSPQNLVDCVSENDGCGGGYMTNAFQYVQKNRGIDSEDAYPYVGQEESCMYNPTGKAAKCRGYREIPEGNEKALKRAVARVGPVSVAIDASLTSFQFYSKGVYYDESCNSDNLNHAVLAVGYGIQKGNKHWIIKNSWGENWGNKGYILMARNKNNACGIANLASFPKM
Protocol: Compounds were tested at eight concentrations (100–0.001 µM). Recombinant human Cat K (5.5 ng/mL) in reaction buffer (50 µL) containing sodium acetate (50 mM), EDTA (2.5 mM), and DTT (1 mM) was added to a 96-well plate containing the test compounds at pH 6.0. The plate was incubated at 37 °C for 15 min, and the fluorescence (F1) was measured at 355 nm excitation and 460 nm emission using a microplate reader (Wallac 1420 Victor2, Norwalk, CA, USA). Subsequently, Z-Phe-Arg-AMC (20 µL, 10 µM) was added, and the plate was incubated at 37 °C for 1 h. Fluorescence (F2) was measured again at 355 nm excitation and 460 nm emission. The inhibition rate was calculated using the formula: inhibition (%) = [control (F2 − F1) − sample (F2–F1)]/[control (F2 − F1) − blank (F2 − F1)] × 100%. IC50 values were calculated using the SPSS 17.0 software.

[4] = Acute toxicity testing, oral; format: in vivo, mice; settings: mouse, in vivo, 300 mg/kg/day for 7 days, mice
Protocol: (§3) Initially, acute toxicity testing was carried out to establish appropriate dosages. Compound H-9 was administered orally at a dose of 300 mg/kg/day for 7 days.

mice = assay: Acute toxicity testing, oral; format: in vivo; settings: 300 mg/kg/day for 7 days
Protocol: as §3

[5] = system: OVX-induced-osteoporosis mice; assay: OVX-induced osteoporosis mouse model, BMD of the thighbone; format: in vivo; settings: 16 weeks; for BMD compared to the untreated model group: H-9 90, 30 and 10 mg/kg, raloxifene 5 mg/kg, intragastric
Protocol: To evaluate the anti-osteoporosis therapeutic potential of compound H-9, an ovariectomized (OVX)-induced osteoporosis mouse model was established and employed. The study included six experimental groups: a blank control group, an untreated model group, three H-9 treatment groups (doses of 90 mg/kg, 30 mg/kg, and 10 mg/kg), and a positive control group treated with raloxifene (5 mg/kg), with 10 mice in each group.
The mice were randomly divided into 2 groups: a blank control group (n = 10) and a model group (n = 50). After a 7-day acclimation period, the model group mice received a bilateral ovariectomy. Subsequently, the model group was further divided into 5 subgroups (n = 10): an untreated model group, three test groups, and a raloxifene group. Ten days after surgery, the three test groups were administered compound H-9 via intragastric administration at doses of 90 mg/kg, 30 mg/kg, and 10 mg/kg, respectively. Raloxifene was given to the positive control group at a dose of 5 mg/kg. All drugs were administered for 16 weeks, with a 1-day break following every 6 consecutive days of administration. The blank control and untreated model groups received an equivalent volume of saline. At the end of the administration period, the mice were anesthetized with sodium pentobarbital, and the BMD of the thighbone was measured using an OSTEOCORE 3 Bone Density Meter (Thule, Marseille, France).

| SMILES | CTX-I concentration in the cell culture medium ([1]; compound 1 µM, 5 days, ELISA) [nM] | CTX-I concentration compared to the model group (in words) ([1]; compound 1 µM, 5 days, vs untreated model group) | Anti-bone resorption effects in vitro compared to MIV-711 (summary statement) ([1]; in vitro, RAW264.7 cells) | Effect on Cat K levels (western blot) [2] | Anti-bone resorption activity by area of bone resorption pits (in words) [3] | IC50 (Recombinant human Cat K) [µM] | LD50 at 7 days [4] [mg/kg] | Mouse deaths (mice) | BMD compared to the untreated model group [5] | Efficacy on BMD compared to the positive control ([5]; H-9 at 90 mg/kg vs raloxifene 5 mg/kg) |
| --- | --- | --- | --- | --- | --- | --- | --- | --- | --- | --- |
| COc1ccc(S(=O)(=O)N2CCC[C@@H](C(=O)NCc3ccc(Cl)cc3)C2)cc1 [Compound H-9, (R)-N-(4-chlorobenzyl)-1-((4-methoxyphenyl)sulfonyl)piperidine-3-carboxamide] | 20.46 ± 3.67 | reduced CTX-I concentration | comparable to those of MIV-711; also recorded: comparable to that of MIV-711 | dose-dependent decrease in Cat K levels; also recorded: effectively downregulated cathepsin K expression; also recorded: decreased Cat K levels | comparable to that of MIV-711 | 0.08 ± 0.03 | > 300 | No mouse deaths | increased the bone mineral density; also recorded: significant increases in BMD | comparable to that of the positive control |
| O=C(c1ccc(OCCN2CCCCC2)cc1)c1c(-c2ccc(O)cc2)sc2cc(O)ccc12 [raloxifene, reference compound] |  |  |  |  |  |  |  |  | significant increases in BMD |  |
